Values quoted from earlier work, collected in patent US20030130179A1, “Methods for identifying therapeutic targets for treating infectious disease” (priority 2000, published 2003).

Columns and labels:
[1] = biological target: thymidylate synthase (TS) (Homo sapiens, UniProt P04818)
Chain of thymidylate synthase (TS) (P04818 2-313 limits assumed): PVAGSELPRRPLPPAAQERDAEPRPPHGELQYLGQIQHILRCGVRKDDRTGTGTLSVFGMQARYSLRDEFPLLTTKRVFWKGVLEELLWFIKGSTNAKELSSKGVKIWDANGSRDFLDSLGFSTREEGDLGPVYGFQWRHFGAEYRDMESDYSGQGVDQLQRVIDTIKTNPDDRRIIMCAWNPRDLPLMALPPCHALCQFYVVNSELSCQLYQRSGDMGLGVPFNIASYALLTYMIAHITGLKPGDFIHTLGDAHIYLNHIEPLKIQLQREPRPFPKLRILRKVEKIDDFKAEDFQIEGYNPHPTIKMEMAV

Compound: COC(=O)[C@H](C)NP(=O)(OC[C@H]1O[C@@H](n2cc(/C=C/Br)c(=O)[nH]c2=O)C[C@@H]1O)Oc1ccccc1 (stereo partly shown) [NB1011]
- Cytotoxicity ([1]; model cell-based systems, relation to TS protein levels): proportional to TS protein levels
- toxicity to the host (colon and breast cancer; animal models): little or no toxicity to the host
- efficacy (colon and breast cancer; colon and breast cancer animal models): demonstrated efficacy against colon and breast cancer

Compound: O=c1[nH]c(=O)n([C@@H]2O[C@H](CO)[C@@H](O)[C@H]2O)cc1F [5-fluorouridine]
- cytotoxicity profile ([1]; TS inhibitor, relation to TS expression (Copur et al., 1995)): more toxic to the cells which express low amounts of the enzyme
